Reference: patent US20240101602A1, “ANTIMICROBIAL PEPTIDES AND METHOD OF PREVENTING OR TREATING INFECTION BY USING THE SAME” (priority 2020, published 2024)

Assays:
[1] = test system: Pseudomonas syringae pv. syringae strain B728a; settings: Pss B728a; Table 7
[2] = test system: Eco DH5α; test: MIC and MBC by serial dilution in 96-well plate; format: cell-based, Escherichia coli; settings: Table 7
How it was run: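 Log-phase bacteria in rich or minimal medium were adjusted to OD600=0.08, diluted 100-fold, and mixed 1:1 with 2-fold serial peptide dilutions (final 0–32 μg/mL). Plates were incubated at the optimal temperature without shaking. MBC is the lowest peptide concentration yielding no colonies.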

[3] = test system: Staphylococcus aureus BCRC 10777
[4] = test system: Erwinia chrysanthemi; format: cell-based
How it was run: (§1)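 Bacteria were grown 4–6 h, set to OD600=0.08 in rich or minimal medium, then diluted 100-fold. This inoculum was mixed 1:1 with 2-fold serial peptide dilutions and incubated static at optimal temperature. MIC was read from growth and MBC taken as the lowest concentration giving no colonies.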

[5] = test system: Pectobacterium carotovorum subsp. carotovorum; format: cell-based
How it was run: as §1

[6] = test system: Staphylococcus epidermidis ATCC 14990
[7] = test system: Ralstonia solanacearum strain Pss190; settings: Rs Pss190; optimal minimal medium, crude peptides (Table 9)
[8] = test system: Botrytis cinerea; format: cell-based; settings: Bc; optimal minimal medium, crude peptides (Table 9)
[9] = test system: Xanthomonas campestris pv. campestris strain Xcc17; test: MIC and MBC by serial dilution in 96-well plate; format: cell-based; settings: Xcc Xcc17; Table 7
Procedure: (§2) The effect of peptide length on the antimicrobial activity was investigated by deciding the minimal inhibitory concentration (MIC) and minimal bactericidal concentration (MBC) for each peptide against the pathogen with the media and growth conditions of phytopathogenic bacteria and E. coli as described in Table 1. Single bacterial colony grown on an optimal rich agar medium was picked, and each grew in 3 mL of the same rich liquid medium for 4 to 6 h.
(§3) For experiments carried out in the rich medium, the bacterial broth culture was then diluted in the same medium to give a final concentration of OD600=0.08, and then further diluted 100 folds in the same medium.
(§4) For experiments carried out in the minimal medium, the bacterial cells were collected from the bacterial liquid culture by centrifugation, re-suspended in an optimal minimal medium to give a final concentration of OD600=0.08, and then further diluted 100 folds in the same minimal medium.
(§5) Fifty microliters of serially diluted peptides (2-fold the final concentration) were added in a 96-well polystyrene plate with 50 μL of the bacterial culture. The final concentrations of peptides were 0, 2, 4, 8, 16 and 32 μg/mL. The plates were incubated at an optimal temperature without shaking.
(§6) MBC was determined as the lowest peptide concentration at which no colonies formed.

[10] = test system: Xanthomonas euvesicatoria strain Xvt28; test: MIC and MBC by serial dilution in 96-well plate; format: cell-based; settings: Xev Xvt28; Table 7
Procedure: as §2, §3, §4, §5, §6

[11] = test system: red blood cells; format: cell-based, rat
Procedure: Further, the hemolytic activity of the antimicrobial peptides was tested. EDTA-treated rat whole blood was centrifuged at 840×g for 3 minutes at 4° C. to separate blood cells and plasma. The plasma was removed, and the blood cells were washed three times with PBS having the same volume as the original blood volume by gently turning the centrifuge tube upside down. After washing, ten microliters of blood cells were diluted in PBS 2000 times to count the cells. Finally, red blood cells were diluted to 5×10^8 cells/mL in PBS. Peptides were dissolved in water and filtered through a 0.2-μm filter to make a stock solution. The peptide concentration was quantitated by UV280. The peptide solution was diluted in PBS to different concentrations (5 times of tested concentration). Twenty microliters of peptide in PBS were mixed with 80 μL of red blood cell solution in a 96-well plate (V-bottom). […] The concentration of heme contained in each well was measured by UV405 using Infinite M1000 pro (Tecan). The hemolytic activity was calculated using the following formula: Hemolytic activity=[(F−F0)/(Ft−F0)]×100% • F is UV405 of the peptide-treated sample; • F0 is UV405 of sample without peptide (negative control); • Ft is UV405 of the Triton-treated sample (positive control).

[12] = test system: Agrobacterium tumefaciens strain Atu C58C1
[13] = test system: Klebsiella pneumonia NTUH-K2044
[14] = test system: Pseudomonas aeruginosa ATCC 9027; settings: ATCC 9027

Substance: Ac-WKKLKKLLKKL-NH2 [pepD3]
- MBC [1]: 16.0 µg/mL
- MIC [1]: 10.0 µg/mL
- MBC [2]: 13.5 µg/mL
- MIC [2]: 10.5 µg/mL
- MBC [3]: 32 µg/mL
- MIC [3]: 16 µg/mL
- MIC [4]: 32.0 µg/mL
- MBC/MFC ([4]; Ech, optimal minimal medium, crude peptides (Table 9)): — (“—” indicates no antimicrobial activity being detected at the highest peptide concentration (32 μg/mL) tested in this study.)
- MBC [5]: 14.3 µg/mL
- MBC/MFC [5]: 13.3 µg/mL
- MBC [6]: 32 µg/mL
- MIC [6]: 16 µg/mL
- MBC/MFC [7]: — (“—” indicates no antimicrobial activity being detected at the highest peptide concentration (32 μg/mL) tested in this study.)
- MIC [7]: — (“—” indicates no antimicrobial activity being detected at the highest peptide concentration (32 μg/mL) tested in this study.)
- MBC/MFC [8]: — (“—” indicates no antimicrobial activity being detected at the highest peptide concentration (32 μg/mL) tested in this study.)
- MIC [8]: — (“—” indicates no antimicrobial activity being detected at the highest peptide concentration (32 μg/mL) tested in this study.)
- MBC [9]: 2.0 µg/mL
- MIC [9]: 2.0 µg/mL
- MBC [10]: 3.0 µg/mL
- MIC [10]: 3.0 µg/mL
- hemolytic activity [11]: very little or non-hemolytic activity
- MBC [12]: 2.4 µg/mL
- MBC [13]: 16 µg/mL
- MIC [13]: 16 µg/mL
- MBC [14]: 8 µg/mL
- MIC [14]: 4 µg/mL
